The structures appear in SMILES notation.

One may read the EC50 as the midpoint of the concentration-response curve. Read a low EC50 as an effect from little substance.

For the assay, the system named is Glo-Response ARE-luc2P HEK293 cell line. The assay can be described thus: ARE luciferase reporter cell-based assay.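 Note: luciferase signal tracks Nrf2 activation of the ARE once compounds disrupt KEAP1-Nrf2 binding, read with One-Glo reagent, DMSO serving as low control.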 To be noted: Homo sapiens, HEK293, 24 h, average of results obtained. A general note: A reporter such as luciferase makes a cellular process visible.

The compound `Cc1cnc2c(c1)S(=O)(=O)N(Cc1cc([C@@H](CC(=O)O)c3ccn4c(C(F)F)nnc4c3C)ccc1C)C[C@H]1CCCCN21` (stereo in doubt) [Example 504, (*R)-3-(3-(Difluoromethyl)-8-methyl-[1,2,4]triazolo[4,3-a]pyridin-7-yl)-3-(4-methyl-3-(((*R)-3-methyl-5,5-dioxido-7,7a,8,9,10,11-hexahydro-6H-dipyrido[2,1-d:2′,3′-f][1,2,5]thiadiazepin-6-yl)methyl)phenyl)propanoic Acid] had an EC50 of 7.22 nM. This counts as single-digit nanomolar.

For the compound `Cc1ccc([C@H](c2ccn3c(C(F)(F)F)nnc3c2C)C(C)(C)C(=O)O)cc1CN1CC2(CCOCC2)Oc2nc(NCCCO)ccc2S1(=O)=O` (single isomer, unassigned) [Example 116, (*R)-3-(3-((7′-((3-Hydroxypropyl)amino)-1′,1′-dioxido-2,3,5,6-tetrahydrospiro[pyran-4,4′-pyrido[2,3-b][1,4,5]oxathiazepin]-2′(3′H)-yl)methyl)-4-methylphenyl)-2,2-dimethyl-3-(8-methyl-3-(trifluoromethyl)-[1,2,4[triazolo[4,3-a]pyridine-7-yl)propanoic Acid], the response was half-maximal at 991 nM (EC50).

`CCn1nnc2c(C)c(C(CC(=O)O)c3ccc(C)c(CN4C[C@@H]5COCCN5c5ncccc5S4(=O)=O)c3)ccc21` (mixture of isomers) [Example 138, (R/S)-3-(3-(((*R)-5,5-Dioxido-7a,8,10,11-tetrahydro-[1,4]oxazino[3,4-d]pyrido[2,3-f][1,2,5]thiadiazepin-6(7H)-yl)methyl)-4-methylphenyl)-3-(1-ethyl-4-methyl-1H-benzo[d][1,2,3]triazol-5-yl)propanoic Acid] had an EC50 of 14 nM.

In the case of `Cc1cnc2c(c1)S(=O)(=O)N(Cc1cc([C@@H](c3ccn4c(C(F)(F)F)nnc4c3C)C(C)C(=O)O)ccc1C)C[C@@H]1CCCCN21` (relative stereo) [Example 514, (3*S)-2-Methyl-3-(4-methyl-3-(((*S)-3-methyl-5,5-dioxido-7,7a,8,9,10,11-hexahydro-6H-dipyrido[2,1-d:2′,3′-f][1,2,5]thiadiazepin-6-yl)methyl)phenyl)-3-(8-methyl-3-(trifluoromethyl)-[1,2,4]triazolo[4,3-a]pyridin-7-yl)propanoic Acid], the EC50 turned out to be 1.7 nM.

`Cc1ccc([C@H](c2ccn3c(C(F)F)nnc3c2C)C(C)(C)C(=O)O)cc1CN1CC2(CC2)Oc2ncccc2S1(=O)=O` (single isomer, unassigned) [Example 568, (*R)-3-(3-(Difluoromethyl)-8-methyl-[1,2,4]triazolo[4,3-a]pyridin-7-yl)-3-(3-((1′,1′-dioxidospiro[cyclopropane-1,4′-pyrido[2,3-b][1,4,5]oxathiazepin]-2′(3′H)-yl)methyl)-4-methylphenyl)-2,2-dimethylpropanoic Acid] returned an EC50 of 192 nM.

In turn, `Cc1ccc([C@H](CC(=O)O)c2ccn3c(C(F)(F)F)nnc3c2C)cc1CN1C[C@H]2CCC(F)(F)CN2c2ncccc2S1(=O)=O` (relative stereo) [Example 454, (*S)-3-(3-(((*R)-10,10-difluoro-5,5-dioxido-7,7a,8,9,10,11-hexahydro-6H-dipyrido[2,1-d:2′,3′-f][1,2,5]thiadiazepin-6-yl)methyl)-4-methylphenyl)-3-(8-methyl-3-(trifluoromethyl)-[1,2,4]triazolo[4,3-a]pyridin-7-yl)propanoic Acid] returned an EC50 of 38.3 nM.

Turning to `Cc1ccc([C@H](CC(=O)O)c2ccn3c(C(F)(F)F)nnc3c2C)cc1CN1C[C@]2(C)CCCN2c2ncccc2S1(=O)=O` (relative stereo) [Example 186, (*S)-3-(4-Methyl-3-(((*S)-7a-methyl-5,5-dioxido-7a,8,9,10-tetrahydropyrido[2,3-f]pyrrolo[2,1-d][1,2,5]thiadiazepin-6(7H)-yl)methyl)phenyl)-3-(8-methyl-3-(trifluoromethyl)-[1,2,4]triazolo[4,3-a]pyridin-7-yl)propanoic Acid], the response was half-maximal at 47 nM (EC50).

The compound `Cc1ccc([C@H](CC(=O)O)c2ccn3c(C(F)(F)F)nnc3c2C)cc1CN1C[C@@H]2CCCCN2c2ncc(F)cc2S1(=O)=O` (relative stereo) [Example 309, (*S)-3-(3-(((*S)-3-fluoro-5,5-dioxido-7,7a,8,9,10,11-hexahydro-6H-dipyrido[2,1-d:2′,3′-f][1,2,5]thiadiazepin-6-yl)methyl)-4-methylphenyl)-3-(8-methyl-3-(trifluoromethyl)-[1,2,4]triazolo[4,3-a]pyridin-7-yl)propanoic Acid] came in with an EC50 of 0.9 nM. Compared with the last compound, the EC50 is about 52-fold lower.

Compound `Cc1cnc2c(c1)S(=O)(=O)N(Cc1cc(C(c3ccn4c(C(F)F)nnc4c3C)C(C)(C)C(=O)O)ccc1C)CC1(CC1)O2` (racemic) [Example 559, (R/S)-3-(3-(Difluoromethyl)-8-methyl-[1,2,4]triazolo[4,3-a]pyridin-7-yl)-2,2-dimethyl-3-(4-methyl-3-((8′-methyl-1′,1′-dioxidospiro[cyclopropane-1,4′-pyrido[2,3-b][1,4,5]oxathiazepin]-2′(3′H)-yl)methyl)phenyl)propanoic Acid] came in with an EC50 of 4.69 nM.

On to `Cc1ccc([C@H](CC(=O)O)c2ccn3c(C(F)F)nnc3c2C)cc1CN1C[C@@H]2CCCCN2c2ncc(C#N)cc2S1(=O)=O` (relative stereo) [Example 31, (*S)-3-(3-(((*S)-3-Cyano-5,5-dioxido-7,7a,8,9,10,11-hexahydro-6H-dipyrido[2,1-d:2′,3′-f][1,2,5]thiadiazepin-6-yl)methyl)-4-methylphenyl)-3-(3-(difluoromethyl)-8-methyl-[1,2,4]triazolo[4,3-a]pyridin-7-yl)propanoic Acid], for which it took 9.9 nM to reach a half-maximal effect (EC50). This EC50 lies about 2.1-fold higher than the previous one.

With `Cc1ccc([C@@H](c2ccn3c(C(F)F)nnc3c2C)C(C)(C)C(=O)O)cc1CN1CC2(CC2)Oc2ncccc2S1(=O)=O` (single isomer, unassigned) [Example 567, (*S)-3-(3-(Difluoromethyl)-8-methyl-[1,2,4]triazolo[4,3-a]pyridin-7-yl)-3-(3-((1′,1′-dioxidospiro[cyclopropane-1,4′-pyrido[2,3-b][1,4,5]oxathiazepin]-2′(3′H)-yl)methyl)-4-methylphenyl)-2,2-dimethylpropanoic Acid], a half-maximal effect (EC50) was put at 2.6 nM.

Turning to `Cc1ccc([C@H](CC(=O)O)c2ccn3c(C(F)F)nnc3c2C)cc1CN1C[C@@H]2CCCCN2c2ncccc2S1(=O)=O` (relative stereo) [Example 447, (*S)-3-(3-(Difluoromethyl)-8-methyl-[1,2,4]triazolo[4,3-a]pyridin-7-yl)-3-(3-(((*S)-5,5-dioxido-7,7a,8,9,10,11-hexahydro-6H-dipyrido[2,1-d:2′,3′-f][1,2,5]thiadiazepin-6-yl)methyl)-4-methylphenyl)propanoic Acid], it took 2.93 nM to reach a half-maximal effect (EC50).

The compound `CCn1nnc2c(C)c(C(CC(=O)O)c3ccc(C)c(CN4CC5(COC5)Oc5ccccc5S4(=O)=O)n3)ccc21` (racemic) [Example 237, (R 5)-3-(6-((1,1-Dioxidospiro[benzo[b][1,4,5]oxathiazepine-4,3′-oxetan]-2(3H)-yl)methyl)-5-methylpyridin-2-yl)-3-(1-ethyl-4-methyl-1H-benzo[d][1,2,3]triazol-5-yl)propanoic Acid] gave an EC50 of 19 nM.

The compound `Cc1cnc2c(c1)S(=O)(=O)N(Cc1cc([C@H](CC(=O)O)c3ccn4c(C(F)F)nnc4c3C)ccc1C)C[C@@H]1CCCCN21` (stereo in doubt) [Example 500, (*S)-3-(3-(Difluoromethyl)-8-methyl-[1,2,4]triazolo[4,3-a]pyridin-7-yl)-3-(4-methyl-3-(((*S)-3-methyl-5,5-dioxido-7,7a,8,9,10,11-hexahydro-6H-dipyrido[2,1-d:2′,3′-f][1,2,5]thiadiazepin-6-yl)methyl)phenyl)propanoic Acid] showed an EC50 of 6.55 nM.

On to `Cc1ccc([C@@H](c2ccn3c(C(F)(F)F)nnc3c2C)C(C)C(=O)O)cc1CN1C[C@@H]2CCCCN2c2ncccc2S1(=O)=O` (relative stereo) [Example 131, (3*S)-3-(3-(((*S)-5,5-Dioxido-7,7a,8,9,10,11-hexahydro-6H-dipyrido[2,1-d:2′,3′-f][1,2,5]thiadiazepin-6-yl)methyl)-4-methylphenyl)-2-methyl-3-(8-methyl-3-(trifluoromethyl)-[1,2,4]triazolo[4,3-a]pyridine-7-yl)propanoic Acid], for which the EC50 worked out at 1.6 nM.

As to `Cc1cnc2c(c1)S(=O)(=O)N(Cc1cc([C@@H](c3ccn4c(C(F)(F)F)nnc4c3C)C(C)(C)C(=O)O)ccc1C)CC1(CCOCC1)O2` (single isomer, unassigned) [Example 18, (*S)-2,2-Dimethyl-3-(4-methyl-3-((8′-methyl-1′,1′-dioxido-2,3,5,6-tetrahydrospiro[pyran-4,4′-pyrido[2,3-b][1,4,5]oxathiazepin]-2′(3′H)-yl)methyl)phenyl)-3-(8-methyl-3-(trifluoromethyl)-[1,2,4]triazolo[4,3-a]pyridin-7-yl)propanoic Acid], a half-maximal response (EC50) required 1.5 nM.

The compound `COCCCOc1ccc2c(n1)OC1(CC1)CN(Cc1cc([C@H](CC(=O)O)c3ccn4c(C(F)(F)F)nnc4c3C)ccc1C)S2(=O)=O` (single isomer, unassigned) [Example 109, (*S)-3-(-3-((7′-((3-Methoxypropoxy)-1′,1′-dioxidospiro[cyclopropane-1,4′-pyrido[2,3-b][1,4,5]oxathiazepin]-2′(3′H)-yl)methyl)-4-methylphenyl)-3-(8-methyl-3-(trifluoromethyl)-[1,2,4[triazolo[4,3-a]pyridine-7-yl)propanoic Acid] gave an EC50 of 128 nM.

`Cc1cnc2c(c1)S(=O)(=O)N(Cc1cc(C(c3ccn4c(C(F)(F)F)nnc4c3C)C(C)(C)C(=O)O)ccc1C)CC1(CCOCC1)O2` (stereo not drawn) [Example 17, 2,2-Dimethyl-3-(4-methyl-3-((8′-methyl-1′,1′-dioxido-2,3,5,6-tetrahydrospiro[pyran-4,4′-pyrido[2,3-b][1,4,5]oxathiazepin]-2′(3′H)-yl)methyl)phenyl)-3-(8-methyl-3-(trifluoromethyl)-[1,2,4]triazolo[4,3-a]pyridin-7-yl)propanoic Acid] gave an EC50 of 3.6 nM.

Source of the values: US10947252B2, “Inhibitors of KEAP1-Nrf2 protein-protein interaction” (Janssen Pharmaceutica NV, priority 2018, dated 2021).
